Where “and” joins values, the source holds several entries; their conditions need not be identical. Equal entries are not always repeated. Toxic doses and inconclusive results are not listed.
Tested on: L1210 leukemia ip in BDF1 mice, survival T/C
Assay: NCI In Vivo Anticancer Drug Screen. Data for tumor model L1210 Leukemia (intraperitoneal) in B6D2F1 (BDF1) mice
Conditions: endpoint: mean survival time, higher = longer survival
Outline: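 Value reflects the ratio of survival in compound-treated mice to survival in vehicle-treated controls, with both groups carrying the same transplanted tumor.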

N=[N+]=CC(=O)CCC(NC(=O)C(CCC(=O)C=[N+]=N)NC(=O)CCC(N)C(=O)O)C(=O)O (stereo not given)
T/C (dose: 0.01 mg/kg/injection, schedule: Q01DX009 (ip), vehicle: water): 114 % of control
T/C (dose: 0.02 mg/kg/injection, schedule: Q01DX009 (ip), vehicle: other): 110 % of control
T/C (dose: 0.02 mg/kg/injection, schedule: Q01DX015 (ip), vehicle: water): 93 % of control
T/C (dose: 0.05 mg/kg/injection, schedule: Q01DX009 (ip), vehicle: other): 102 % of control and 115 % of control
T/C (dose: 0.05 mg/kg/injection, schedule: Q01DX015 (ip), vehicle: water): 102 % of control
T/C (dose: 0.05 mg/kg/injection, schedule: Q01DX017 (ip), vehicle: saline): 98 % of control and 106 % of control
T/C (dose: 0.05 mg/kg/injection, schedule: Q02DX009 (ip), vehicle: saline): 98 % of control
T/C (dose: 0.05 mg/kg/injection, schedule: Q03HX024 (ip), vehicle: water): 93 % of control
T/C (dose: 0.07 mg/kg/injection, schedule: Q01DX009 (ip), vehicle: water): 156 % of control
T/C (dose: 0.1 mg/kg/injection, schedule: Q01DX009 (ip), vehicle: other): 117 % of control
T/C (dose: 0.1 mg/kg/injection, schedule: Q01DX015 (ip), vehicle: water): 108 % of control
T/C (dose: 0.1 mg/kg/injection, schedule: Q01DX017 (ip), vehicle: saline): 123 % of control
T/C (dose: 0.1 mg/kg/injection, schedule: Q02DX009 (ip), vehicle: saline): 116 % of control
T/C (dose: 0.1 mg/kg/injection, schedule: Q04DX005 (ip), vehicle: saline): 102 % of control
T/C (dose: 0.2 mg/kg/injection, schedule: Q01DX009 (ip), vehicle: other): 107 % of control
T/C (dose: 0.2 mg/kg/injection, schedule: Q01DX017 (ip), vehicle: saline): 158 % of control
T/C (dose: 0.2 mg/kg/injection, schedule: Q02DX009 (ip), vehicle: saline): 123 % of control
T/C (dose: 0.2 mg/kg/injection, schedule: Q04DX005 (ip), vehicle: saline): 104 % of control
T/C (dose: 0.2 mg/kg/injection, schedule: Q08DX003 (ip), vehicle: saline): 112 % of control
T/C (dose: 0.4 mg/kg/injection, schedule: Q01DX015 (ip), vehicle: other): 117 % of control
T/C (dose: 0.4 mg/kg/injection, schedule: Q01DX015 (ip), vehicle: water): 153 % of control
T/C (dose: 0.4 mg/kg/injection, schedule: Q01DX017 (ip), vehicle: saline): 110 % of control and 123 % of control
T/C (dose: 0.4 mg/kg/injection, schedule: Q04DX005 (ip), vehicle: saline): 121 % of control
T/C (dose: 0.4 mg/kg/injection, schedule: Q08DX003 (ip), vehicle: saline): 107 % of control
T/C (dose: 0.6 mg/kg/injection, schedule: Q01DX015 (ip), vehicle: water): 183 % of control
T/C (dose: 0.8 mg/kg/injection, schedule: Q04DX005 (ip), vehicle: saline): 118 % of control
T/C (dose: 0.8 mg/kg/injection, schedule: Q08DX003 (ip), vehicle: saline): 109 % of control
T/C (dose: 1.0 mg/kg/injection, schedule: Q01DX009 (oral), vehicle: water): 96 % of control
T/C (dose: 1.0 mg/kg/injection, schedule: Q02DX005 (ip), vehicle: other): 160 % of control
T/C (dose: 1.0 mg/kg/injection, schedule: Q02DX005 (oral), vehicle: other): 163 % of control
T/C (dose: 1.25 mg/kg/injection, schedule: Q02DX008 (ip), vehicle: other): 189 % of control
T/C (dose: 1.25 mg/kg/injection, schedule: Q02DX008 (ip), vehicle: water): 166 % of control
T/C (dose: 1.25 mg/kg/injection, schedule: Q02DX008 (oral), vehicle: water): 156 % of control
T/C (dose: 1.6 mg/kg/injection, schedule: Q08DX003 (ip), vehicle: saline): 110 % of control
T/C (dose: 2.0 mg/kg/injection, schedule: Q02DX005 (oral), vehicle: other): 186 % of control
T/C (dose: 2.5 mg/kg/injection, schedule: Q02DX008 (oral), vehicle: water): 154 % of control
T/C (dose: 4.0 mg/kg/injection, schedule: Q02DX005 (ip), vehicle: other): 176 % of control
T/C (dose: 4.0 mg/kg/injection, schedule: Q02DX005 (oral), vehicle: other): 195 % of control
T/C (dose: 5.0 mg/kg/injection, schedule: Q02DX008 (ip), vehicle: other): 206 % of control
T/C (dose: 5.0 mg/kg/injection, schedule: Q04DX003 (ip), vehicle: other): 155 % of control
T/C (dose: 5.0 mg/kg/injection, schedule: Q04DX003 (ip), vehicle: saline): 170 % of control
T/C (dose: 6.0 mg/kg/injection, schedule: Q02DX005 (ip), vehicle: other): 197 % of control
T/C (dose: 6.0 mg/kg/injection, schedule: Q02DX005 (oral), vehicle: other): 204 % of control
T/C (dose: 6.2 mg/kg/injection, schedule: Q03HX024 (ip), vehicle: water): 193 % of control
T/C (dose: 8.0 mg/kg/injection, schedule: Q02DX005 (ip), vehicle: other): 183 % of control

Reference: PubChem BioAssay AID248 (DTP/NCI, 2004)
